Results: patent publication US10494376B2, “Tetrahydroisoquinoline derived PRMT5-inhibitors” (CTXT PTY LTD, priority 2014, dated 2019)
pIC50: −log10 of the molar value. Structures can show the parent of a compound that is named as a salt.

Target: Full-length PRMT5 enzyme (NCBI Reference sequence NP_006100.2) co-expressed with His6-MEP50 (Homo sapiens (Human), UniProt O14744)
Assay: Revised PRMT5 Biochemical Assay
Conditions: 1 μM peptide substrate, 1 μM S-Adenosyl methionine, 4 hours at 37 degree Celsius, Transcreener EPIGEN fluorescence polarisation
Protocol: Compounds of the invention may be tested for in vitro activity in the following assay: A histone H4 derived peptide is used as substrate (amino acid sequence: […]N H2). Full-length PRMT5 enzyme (NCBI Reference sequence NP_006100.2) was co-expressed with His6-MEP50 in insect cells and purified via Nickel immobilized metal affinity and gel filtration chromatography (“the enzyme”).
The 6 μL reactions are run in Greiner brand black 384-well low volume assay plates. All reactions contained assay buffer (phosphate buffered saline, 0.01% (v/v) Tween-20, 0.01% (w/v) albumin from chicken egg white, 1 mM Dithiothreitol, 1 μM peptide substrate, 1 μM S-Adenosyl methionine, and 15 ng/reaction enzyme, with the enzyme being omitted from negative control reactions. Compounds were added in a volume of 100 nL from dilution series prepared in DMSO, positive and negative control reactions receiving the same volume DMSO without compound. The plates were sealed with adhesive seals and incubated for 4 hours at 37 degree Celsius. Reaction progress was measured using the Transcreener™ EPIGEN methyltransferase assay (BellBrook Labs, Madison, Wis.) as recommended by the manufacturer. To each reaction 2 μL detection mix were added, containing coupling enzymes, fluorescence polarisation tracer, and AMP antibody. Plates were incubated for 90 minutes before being read on a PerkinElmer EnVision™ plate reader in fluorescence polarisation mode. IC50 values were obtained from the raw readings by calculating percent inhibition (%1) for each reaction relative to controls on the same plate (% I=(I−CN)/(CP−CN) where CN/CP are the averages of the negative/positive reactions, respectively), then fitting the %1 data vs. compound concentration [I] to % I=(A+((B−A)/(1+((C/[I])^D)))) where A is the lower asymptote, B is the upper asymptote, C is the IC50 value, and D is the slope.

Full-length PRMT5 enzyme (NCBI Reference sequence NP_006100.2) co-expressed with His6-MEP50, sequence (O14744 whole entry): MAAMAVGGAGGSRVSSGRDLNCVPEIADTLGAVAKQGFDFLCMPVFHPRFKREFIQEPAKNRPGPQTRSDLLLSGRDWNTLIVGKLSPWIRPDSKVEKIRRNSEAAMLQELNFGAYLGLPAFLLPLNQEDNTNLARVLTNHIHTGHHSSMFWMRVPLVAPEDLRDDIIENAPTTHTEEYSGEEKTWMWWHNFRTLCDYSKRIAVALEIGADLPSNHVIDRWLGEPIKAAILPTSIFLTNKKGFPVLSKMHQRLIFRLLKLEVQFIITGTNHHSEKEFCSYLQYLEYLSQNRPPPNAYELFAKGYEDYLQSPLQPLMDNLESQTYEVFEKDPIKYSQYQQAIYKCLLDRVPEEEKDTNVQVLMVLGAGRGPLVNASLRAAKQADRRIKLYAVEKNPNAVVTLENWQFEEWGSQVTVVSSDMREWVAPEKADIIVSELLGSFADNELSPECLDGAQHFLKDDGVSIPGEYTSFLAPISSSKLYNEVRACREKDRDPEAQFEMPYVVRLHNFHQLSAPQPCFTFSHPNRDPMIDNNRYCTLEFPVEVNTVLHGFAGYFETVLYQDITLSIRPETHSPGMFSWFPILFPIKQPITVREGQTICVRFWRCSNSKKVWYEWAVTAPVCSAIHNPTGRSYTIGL
Full-length PRMT5 enzyme (NCBI Reference sequence NP_006100.2) co-expressed with His6-MEP50, sequence (Q9BQA1 whole entry partner): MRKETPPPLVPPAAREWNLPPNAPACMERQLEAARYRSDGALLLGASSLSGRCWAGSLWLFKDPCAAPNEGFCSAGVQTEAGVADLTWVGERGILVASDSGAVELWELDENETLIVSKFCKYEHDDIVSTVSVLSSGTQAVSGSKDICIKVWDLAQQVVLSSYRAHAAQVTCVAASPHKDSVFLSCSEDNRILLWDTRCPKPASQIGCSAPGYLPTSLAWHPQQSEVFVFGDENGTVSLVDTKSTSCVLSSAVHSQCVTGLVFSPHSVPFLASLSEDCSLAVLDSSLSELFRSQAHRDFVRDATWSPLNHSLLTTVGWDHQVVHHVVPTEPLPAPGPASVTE

SMILES	pIC50
O=C(NC[C@@H](O)[C@@H]1Cc2ccccc2CN1)c1ccc(C(=O)N2C3CCC2CC(O)C3)cc1 (stereo partly drawn) [Example 42, N-((R)-2-Hydroxy-2-((S)-1,2,3,4-tetrahydroisoquinolin-3-yl)ethyl)-4-(3-hydroxy-8-azabicyclo[3.2.1]octane-8-carbonyl)benzamide]	6.67
O=C(NC[C@@H](O)[C@@H]1Cc2ccccc2CN1)c1ccc(C(=O)N2CCCC(O)C2)cc1 (stereo partly drawn) [Example 43, N-((R)-2-Hydroxy-2-((S)-1,2,3,4-tetrahydroisoquinolin-3-yl)ethyl)-4-(3-hydroxypiperidine-1-carbonyl)benzamide]	6.01
O=C(NC[C@@H](O)[C@@H]1Cc2ccccc2CN1)c1ccc(C(=O)NC2CCC(F)(F)CC2)cc1 [Example 44, N^1-(4,4-Difluorocyclohexyl)-N^4-((R)-2-hydroxy-2-((S)-1,2,3,4-tetrahydroisoquinolin-3-yl)ethyl)terephthalamide]	5.90
O=C(NC[C@@H](O)[C@@H]1Cc2ccccc2CN1)c1ccc(C(=O)N2CCC(O)CC2)cc1 [Example 45, N-((R)-2-Hydroxy-2-((S)-1,2,3,4-tetrahydroisoquinolin-3-yl)ethyl)-4-(4-hydroxypiperidine-1-carbonyl)benzamide]	6.30
O=C(NC[C@@H](O)[C@@H]1Cc2ccccc2CN1)c1ccc(C(=O)N2CCC(C(F)F)CC2)cc1 [Example 46, 4-(4-(Difluoromethyl)piperidine-1-carbonyl)-N-((R)-2-hydroxy-2-((S)-1,2,3,4-tetrahydroisoquinolin-3-yl)ethyl)benzamide]	6.64
O=C(NC[C@@H](O)[C@@H]1Cc2ccccc2CN1)c1ccc(C(=O)N2CCC(O)C2)cc1 (stereo partly drawn) [Example 47, N-((R)-2-Hydroxy-2-((S)-1,2,3,4-tetrahydroisoquinolin-3-yl)ethyl)-4-(3-hydroxypyrrolidine-1-carbonyl)benzamide]	5.47
O=C(NC[C@@H](O)[C@@H]1Cc2ccccc2CN1)c1ccc(Cl)cc1 [Example 48, 4-Chloro-N—((R)-2-hydroxy-2-((S)-1,2,3,4-tetrahydroisoquinolin-3-yl)ethyl)benzamide]	6.72
O=C(NC[C@H](O)[C@@H]1Cc2ccccc2CN1)c1ccc(C(=O)N2CCOCC2)cc1 [Example 52, N—((S)-2-Hydroxy-2-((S)-1,2,3,4-tetrahydroisoquinolin-3-yl)ethyl)-4-(morpholine-4-carbonyl)benzamide hydrochloride]	5.48
O=C(NC[C@@H](O)[C@H]1Cc2ccccc2CN1)c1ccc(C(=O)N2CCOCC2)cc1 [Example 54, N—((R)-2-Hydroxy-2-((R)-1,2,3,4-tetrahydroisoquinolin-3-yl)ethyl)-4-(morpholine-4-carbonyl)benzamide hydrochloride]	4.09
O=C(NCc1ccccn1)c1ccc(C(=O)NC[C@@H](O)[C@@H]2Cc3ccccc3CN2)cc1 [Example 56, N^1-((R)-2-Hydroxy-2-((S)-1,2,3,4-tetrahydroisoquinolin-3-yl)ethyl)-N^4-(pyridin-2-ylmethly)terephthalamide]	6.42
O=C(NC[C@@H](O)[C@@H]1Cc2ccccc2CN1)c1ccc(OCC(F)(F)F)nc1 [Example 57, N-((R)-2-Hydroxy-2-((S)-1,2,3,4-tetrahydroisoquinolin-3-yl)ethyl)-6-(2,2,2-trifluoroethoxy)nicotinamide]	6.23
O=C(NC[C@@H](O)[C@@H]1Cc2ccccc2CN1)c1ccc(OCC2CC2)nc1 [Example 58, 6-(Cyclopropylmethoxy)-N-((R)-2-hydroxy-2-((S)-1,2,3,4-tetrahydroisoquinolin-3-yl)ethyl)nicotinamide]	6.18
CC(C)Oc1ccc(C(=O)NC[C@@H](O)[C@@H]2Cc3ccccc3CN2)cn1 [Example 59, N-((R)-2-Hydroxy-2-((S)-1,2,3,4-tetrahydroisoquinolin-3-yl)ethyl)-6-isopropoxynicotinamide]	6.23
COC(=O)N1CCC(Oc2cccc(C(=O)NC[C@@H](O)[C@@H]3Cc4ccccc4CN3)c2)CC1 [Example 60, Methyl 4-(3-(((R)-2-hydroxy-2-((S)-1,2,3,4-tetrahydroisoquinolin-3-yl)ethyl)carbamoyl)phenoxy)piperidine-1-carboxylate]	5.48
CC(C)OC(=O)N1CCC(Oc2cc(C(=O)NC[C@@H](O)[C@@H]3Cc4ccccc4CN3)ccn2)CC1 [Example 61, Isopropyl 4-((4-(((R)-2-hydroxy-2-((S)-1,2,3,4-tetrahydroisoquinolin-3-yl)ethyl)carbamoyl)pyridin-2-yl)oxy)piperidine-1-carboxylate]	6.98
CC(C)COC(=O)N1CCC(Oc2cc(C(=O)NC[C@@H](O)[C@@H]3Cc4ccccc4CN3)ccn2)CC1 [Example 62, Isobutyl 4-((4-(((R)-2-hydroxy-2-((S)-1,2,3,4-tetrahydroisoquinolin-3-yl)ethyl)carbamoyl)pyridin-2-yl)oxy)piperidine-1-carboxylate]	6.99
O=C(NC[C@@H](O)[C@@H]1Cc2ccccc2CN1)c1ccnc(OCC(F)(F)F)c1 [Example 63, N-((R)-2-hydroxy-2-((S)-1,2,3,4-tetrahydroisoquinolin-3-yl)ethyl)-2-(2,2,2-trifluoroethoxy)isonicotinamide]	6.61
CC(C)Oc1cc(C(=O)NC[C@@H](O)[C@@H]2Cc3ccccc3CN2)ccn1 [Example 64, N-((R)-2-hydroxy-2-((S)-1,2,3,4-tetrahydroisoquinolin-3-yl)ethyl)-2-isopropoxyisonicotinamide]	6.58
NC(=O)COc1ccccc1C(=O)NC[C@@H](O)[C@@H]1Cc2ccccc2CN1 [Example 65, 2-(2-Amino-2-oxoethoxy)-N-((R)-2-hydroxy-2-((S)-1,2,3,4-tetrahydroisoquinolin-3-yl)ethyl)benzamide]	5.64
CC(=O)N1CCN(C(=O)c2ccc(C(=O)NC[C@@H](O)[C@@H]3Cc4ccccc4CN3)cc2)CC1 [Example 66, 4-(4-Acetylpiperazine-1-carbonyl)-N-((R)-2-hydroxy-2-((S)-1,2,3,4-tetrahydroisoquinolin-3-yl)ethyl)benzamide]	6.48
COC(=O)N1CCN(C(=O)c2ccc(C(=O)NC[C@@H](O)[C@@H]3Cc4ccccc4CN3)cc2)CC1 [Example 67, Methyl 4-(4-(((R)-2-hydroxy-2-((S)-1,2,3,4-tetrahydroisoquinolin-3-yl)ethyl)carbamoyl)benzoyl)piperazine-1-carboxylate]	6.51
CC(=O)N1CCC(Oc2ccccc2C(=O)NC[C@@H](O)[C@@H]2Cc3ccccc3CN2)CC1 [Example 68, 2-((1-Acetylpiperidin-4-yl)oxy)-N-((R)-2-hydroxy-2-((S)-1,2,3,4-tetrahydroisoquinolin-3-yl)ethyl)benzamide]	5.65
CCOc1nc(C(=O)N2C3CCC2COC3)ccc1C(=O)NC[C@@H](O)[C@@H]1Cc2ccccc2CN1 [Example 70, 6-(3-Oxa-8-azabicyclo[3.2.1]octane-8-carbonyl)-2-ethoxy-N-((R)-2-hydroxy-2-((S)-1,2,3,4-tetrahydroisoquinolin-3-yl)ethyl)nicotinamide]	6.92
COc1cc(C(=O)NC[C@@H](O)[C@@H]2Cc3ccccc3CN2)ccn1 [Example 71, N-((R)-2-Hydroxy-2-((S)-1,2,3,4-tetrahydroisoquinolin-3-yl)ethyl)-2-methoxyisonicotinamide dihydrochloride]	6.03
O=C(NC[C@@H](O)[C@@H]1Cc2ccccc2CN1)c1ccc(CC(=O)N2CCCCC2)nc1 [Example 72, N-((R)-2-Hydroxy-2-((S)-1,2,3,4-tetrahydroisoquinolin-3-yl)ethyl)-6-(2-oxo-2-(piperidin-1-yl)ethyl)nicotinamide dihydrochloride]	6.23
O=C(NC[C@@H](O)[C@@H]1Cc2ccccc2CN1)c1ccnc(C2CCOCC2)c1 [Example 73, N-((R)-2-Hydroxy-2-((S)-1,2,3,4-tetrahydroisoquinolin-3-yl)ethyl)-2-(tetrahydro-2H-pyran-4-yl)isonicotinamide dihydrochloride]	5.64
O=C(NC[C@@H](O)[C@@H]1Cc2ccccc2CN1)c1cc(OC2CCOCC2)ncc1Cl [Example 75, 5-Chloro-N-((R)-2-hydroxy-2-((S)-1,2,3,4-tetrahydroisoquinolin-3-yl)ethyl)-2-((tetrahydro-2H-pyran-4-yl)oxy)isonicotinamide dihydrochloride]	5.92
COC(=O)N1CCC(Oc2cc(C(=O)NC[C@@H](O)[C@@H]3Cc4ccccc4CN3)ncn2)CC1 [Example 76, Methyl 4-((6-(((R)-2-hydroxy-2-((S)-1,2,3,4-tetrahydroisoquinolin-3-yl)ethyl)carbamoyl)pyrimidin-4-yl)oxy)piperidine-1-carboxylate dihydrochloride]	6.58
O=C(NC[C@@H](O)[C@@H]1Cc2ccccc2CN1)c1ccncc1 [Example 77, N-((R)-2-Hydroxy-2-((S)-1,2,3,4-tetrahydroisoquinolin-3-yl)ethyl)isonicotinamide dihydrochloride]	5.06
